Target: NA activity of oseltamivir-resistant (OR, H275Y) pandemic (H1N1) 2009 virus (Influenza A virus, UniProt C3W5S3, H275Y)
Type: biochemical

Compound	peramivir susceptibility	susceptibility by NA inhibition assay
CCC(CC)[C@H](NC(C)=O)[C@@H]1[C@H](O)[C@@H](C(=O)O)C[C@H]1N=C(N)N [peramivir]	cross-resistance	–
CC(=O)N[C@H]1[C@H]([C@H](O)[C@H](O)CO)OC(C(=O)O)=C[C@@H]1N=C(N)N [Zanamivir, zanamivir]	–	sensitive

From publication PMC3166015 (Emerging Infectious Diseases, 2011)
